Data on one compound can be found in patent publication US20190022225A1, “PROTOCOL FOR INCREASING LIFE EXPECTANCY IN A TEST SUBJECT” (Mayo Foundation for Medical Education and Research, priority 2015, published 2019).

Some results are limits rather than exact numbers.

Experiment [1] concerns senescent (irradiated) IMR90 cells. The experiment can be described thus: CellTiter-Glo cell viability assay, senescent IMR90. Type of experiment: cell-based, human. The protocol:
(§1) To determine whether ABT-263 is selectively toxic to senescent cells compared to non-senescent cells, a cell viability assay was used to assess cell survival following treatment with ABT-263. IMR90 cells (human primary lung fibroblasts (IMR90) (IMR-90 (ATCC® CCL-186™, Mannassas, Va.) were seeded in six well plates, and cells were induced to senescence with 10 Gy of ionizing radiation (IR) (Day 0). The media was refreshed every 3 days. The senescent phenotype is allowed to develop for 7 days at which point a cell count was made to determine the baseline number of cells followed by seeding into 96-well plates. On day 8, the senescent cells (irradiated) and the non-senescent cells (the non-radiated cells), were exposed to serial dilutions of ABT-263 for a period of 3 days. ABT-263 concentrations ranged from 0.5 nM to 3 μM. Each condition was seeded in triplicate.
(§2) After three days of treatment (Day 11), cells were assayed for cell survival using the commercially available CellTiter-Glo® (CTG) Luminescent Cell Viability Assay (Promega Corporation, Madison, Wis.). The assay determines the number of viable cells in culture based on the quantitation of ATP present which is an indicator of metabolically active cells.
(§3) The experiments performed for assessing the effect of these other Bcl-2 inhibitors were performed essentially as described in Example 7. Cells were exposed to ABT-199 at serial dilution concentrations ranging from 15 nM to 100 μM (FIGS. 26 and 27). Cells were exposed to Obatoclax at concentrations ranging from 1.4 nM to 9 μM (FIG. 28).
(§4) The effect of ABT-263 in combination with the Akt inhibitor MK-2206 was tested for selective toxicity of senescent cells compared to non-senescent cells in IMR90 cells. The methods of Example 7 were repeated except that cell cultures were exposed to 10 nM MK-2206 (Selleckem, Cat# S1078) in addition to serial dilutions of ABT-263.
Background: In ATP-based viability assays light output follows the ATP content of the culture.

The test system of experiment [2] is non-senescent HCA2 foreskin fibroblast cells. The experiment can be described thus: CellTiter-Glo cell viability assay, non-senescent HCA2. Type of experiment: cell-based. Particulars: 72 h; HCA2, 3 days; not toxic up to highest concentration. The protocol:
as §1, §2
(§5) The methods of Example 7 were repeated in other cell strains. […]

For experiment [3], the system named is non-senescent IMR90 cells. The experiment can be described thus: Cell counting assay, ABT-263 on non-senescent IMR90. The format is cell-based, human. The note with it: 3 μM, 24 hours. The protocol: (§6) To determine whether ABT-263 is selectively toxic to senescent cells compared to non-senescent cells, a cell counting assay was used to determine cell survival following treatment with ABT-263. […] Each condition was seeded in three wells and counted independently. Cells were counted after a 24 hour exposure to ABT-263 (or control culture).

The subject of experiment [4] is senescent (irradiated) IMR90 cells. The experiment can be described thus: Cell counting assay, ABT-263 on senescent IMR90. Type of experiment: cell-based, human. The note with it: 3 μM, 24 hours. How it is done: as §6
For experiment [5], the system named is 3MR or INK-ATTAC mice exposed to cigarette smoke. As to the kind of experiment: Cigarette smoke exposure model (COPD), oxygen saturation. The format is in vivo, mouse. The note with it: after 2 months of cigarette smoke exposure. How it is done:
Six week-old 3MR (n=35) or INK-ATTAC (n=35) mice were chronically exposed to cigarette smoke generated from a Teague TE-10 system, an automatically-controlled cigarette smoking machine that produces a combination of side-stream and mainstream cigarette smoke in a chamber, which is transported to a collecting and mixing chamber where varying amounts of air is mixed with the smoke mixture. […] Mice received a total of 6 hours of cigarette smoke exposure per day, 5 days a week for 6 months. Each lighted cigarette (3R4F research cigarettes containing 10.9 mg of total particulate matter (TPM), 9.4 mg of tar, and 0.726 mg of nicotine, and 11.9 mg carbon monoxide per cigarette [University of Kentucky, Lexington, Ky.]) was puffed for 2 seconds and once every minute for a total of 8 puffs, with the flow rate of 1.05 L/min, to provide a standard puff of 35 cm^3. The smoke machine was adjusted to produce a mixture of side stream smoke (89%) and mainstream smoke (11%) by smoldering 2 cigarettes at one time. The smoke chamber atmosphere was monitored for total suspended particulates (80-120 mg/m^3) and carbon monoxide (350 ppm). Beginning at day 7, (10) INK-ATTAC and (10) 3MR mice were treated with AP20187 (3×per week) or gancyclovir (5 consecutive days of treatment followed by 16 days off drug, repeated until the end of the experiment), respectively. An equal number of mice received the corresponding vehicle. The remaining 30 mice (15 INK-ATTAC and 15 3MR) were evenly split with 5 of each genetically modified strain placed into three different treatment groups. One group (n=10) received Nutlin-3A (25 mg/kg dissolved in 10% DMSO/3% Tween-20 in PBS, treated 14 days consecutively followed by 14 days off drug, repeated until the end of the experiment). One group (n=10) received ABT-263 (Navitoclax) (100 mg/kg dissolved in 15% DMSO/5% Tween-20, treated 7 days consecutively followed by 14 days off drug, repeated until the end of the experiment), and the last group (n=10) received only the vehicle used for ABT-263 (15% DMSO/5% Tween-20), following the same treatment regimen as ABT-263.
After two months of cigarette smoke exposure, lung function was assessed by monitoring oxygen saturation using the MouseSTAT PhysioSuite pulse oximeter (Kent Scientific). Animals were anesthetized with isoflurane (1.5%) and the toe clip was applied. Mice were monitored for 30 seconds and the average peripheral capillary oxygen saturation (SpO2) measurement over this duration was calculated.

The subject of experiment [6] is senescent Primary Renal Cortical Cells (renal epithelial cells). As to the kind of experiment: CellTiter-Glo cell viability assay, senescent renal epithelial cells. Type of experiment: cell-based. Particulars: 72 h, 3 days. The protocol: as §1, §2, §5
Experiment [7] has as its system non-senescent Primary Renal Cortical Cells (renal epithelial cells). The experiment can be described thus: CellTiter-Glo cell viability assay, non-senescent renal epithelial cells. Type of experiment: cell-based. The note with it: 72 h, 3 days. How it is done: as §1, §2, §5
In experiment [8] the test system is senescent (IMR90 Sen(IR)) and non-senescent (IMR90 NS) cells. The experiment can be described thus: Senescent cell killing in presence or absence of pan-caspase inhibitor Q-VD-OPh (CellTiter-Glo). The format is cell-based, human.
Description: After senescence was established, cells were re-seeded into 96 well plates. […] At the end of the assay time period, cells were counted. Each condition was seeded in three plate wells and counted independently. […] Cell survival was determined using the commercially available CellTiter-Glo® Luminescent Cell Viability Assay (Promega Corporation, Madison, Wis.). The assay determines the number of viable cells in culture based on the quantitation of ATP present which is an indicator of metabolically active cells.
After senescence was established, cells were re-seeded into 96 well plates. […] At the end of the assay time period, cells were counted. Each condition was seeded in three plate wells and counted independently. […] Cell survival was determined using CellTiter-Glo® Luminescent Cell Viability Assay (Promega Corporation, Madison, Wis.). The assay determines the number of viable cells in culture based on the quantitation of ATP present which is an indicator of metabolically active cells.
The test system of experiment [9] is paclitaxel treated p16-3MR mice. The experiment can be described thus: Chemotherapy related side effects: voluntary exercise (wheel counts) after paclitaxel in p16-3MR mice. Type of experiment: in vivo, mouse. The note with it: ABT-263 100 mg/kg ip daily 7 days; ganciclovir 25 mg/kg ip daily 3 days. The protocol:
ABT-263 (100 mg/kg) was administered intraperitoneally daily for seven days after paclitaxel administration. Two days after the last dose of ABT-263, all groups of animals were housed in metabolic cages (promethion, sable systems international, Las Vegas, Nev.) to monitor voluntary exercise as determined by wheel counts. Data were collected and analyzed two days later. Clearance of senescent cells by ABT-263 and ganciclovir restored approximately 70% of wheel count reduction caused by chemotherapy treatment.

Experiment [10] deals with non-senescent IMR90 cells. The experiment can be described thus: CellTiter-Glo cell viability assay, non-senescent IMR90. The format is cell-based. Particulars: Homo sapiens, IMR-90, 72 h; IMR90, 3 days, CellTiter-Glo; read-out: IC50 on non-senescent cells. The protocol: as §1, §2, §3, §4
For experiment [11], the system named is senescent HCA2 foreskin fibroblast cells. The experiment can be described thus: CellTiter-Glo cell viability assay, senescent HCA2. The format is cell-based. The note with it: 72 h; HCA2, 3 days. How it is done:
as §1, §2, §5

One may read the IC50 as the concentration needed to halve the response being measured. Turning to `CC1(C)CCC(c2ccc(Cl)cc2)=C(CN2CCN(c3ccc(C(=O)NS(=O)(=O)c4ccc(N[C@H](CCN5CCOCC5)CSc5ccccc5)c(S(=O)(=O)C(F)(F)F)c4)cc3)CC2)C1` [ABT-263, 4-[4-[[2-(4-chlorophenyl)-5,5-dimethylcyclohexen-1-yl]methyl]piperazin-1-yl]-N-[4-[[(2R)-4-morpholin-4-yl-1-phenylsulfanylbutan-2-yl]amino]-3-(trifluoromethylsulfonyl)phenyl]sulfonylbenzamide], the IC50 in experiment [1] (Homo sapiens, IMR-90, 72 h, IMR90, 3 days, CellTiter-Glo, read-out: IC50 on senescent cells) was 0.14 µM; in experiment [2], over 3 µM; in [6], 0.025 µM; in experiment [7], 0.43 µM; in experiment [10], 2.4 µM; in [11], 0.41 µM. The “in vitro theoretical therapeutic index” value in experiment [1] (IMR90, non-senescent versus senescent IC50) amounted to 17. Further, the “cell growth / survival of non-senescent cells versus starting level” value in [3] was “did not decrease the cell growth below the starting level”. Moreover, the “cell counts as percent of counts before treatment” value in [4] is listed as 28%. For the same compound, the “SpO2 levels versus untreated controls” value in [5] is “statistically significant increases”. In experiment [8] (IMR90, 3 days), the “selective killing of senescent cells” value is reported as “selectively kills senescent cells”. In addition, in experiment [8] (Q-VD-OPh 20 μM, WEHI-539 1.67 or 5 μM, ABT-263 0.33 or 1 μM, 3 days), the “percent of surviving senescent cells in the presence of the pan-caspase inhibitor” value is given as “increased”. The “senolytic activity in the presence of a caspase inhibitor” value in [8] (panCaspase inhibitor Q-VD-OPh) is recorded as “inhibited”. In addition, the “restoration of wheel count reduction caused by chemotherapy treatment” value in experiment [9] is “approximately 70%”.
